In brackets after ≈: the same amount, converted by molar mass. Each block holds one compound with its values, some of them ahead of it.
How the values were obtained:
[1] = Solubility in hydroxypropyl-β-cyclodextrin solution (HPLC of filtrate); assay type: physicochemical; settings: 4° C., 72 hr
Description: (§1) O-(4-dimethylaminoethoxycinnamoyl)fumagillol (30 mg) was added to 1.5, 3.5, 7.0, 14.0, 28.0 w/v % hydroxypropyl-β-cyclodextrin solution, respectively, and stirred at 4° C. After 72 hr, the mixture was filtered with 0.2 μm membrabe filter and O-(4-dimethylaminoethoxycinnamoyl)fumagillol in the filtrate was determined by high pressure liquid chromatography (HPLC). The solubility of O-(4-dimethylamino ethoxycinnamoyl)fumagillol as a function of the hydroxypropyl-β-cyclodextrin concentration was represented in Table 1.
(§2) O-(3,4,5-trimethoxycinnamoyl)fumagillol (20 mg) was added to 1.5, 3.5, 7.0, 14.0, 28.0 w/v % hydroxypropyl-β-cyclodextrin solution, respectively, and stirred at 4° C. After 72 hr, the mixture was filtered with 0.2 μm membrabe filter and O-(3,4,5-trimethoxycinnamoyl)fumagillol in the filtrate was determined by high pressure liquid chromatography (HPLC). The solubility of O-(3,4,5-trimethoxycinnamoyl)fumagillol as a function of the hydroxypropyl-β-cyclodextrin concentration was shown in Table 3.

[2] = Stability of lyophilized powders under storage at 25° C. (residual amount by HPLC); assay type: physicochemical
Description: The stability of the lyophilized powders obtained in Example 6 was compared with that of O-(4-dimethylaminoethoxycinnamoyl)fumagillol alone under storage at 25° C. The residual amount of O-(4-dimethylaminoethoxycinnamoyl)fumagillol was determined by HPLC.
The stability of the lyophilized powders obtained in Example 7 was compared with that of O-(3,4,5-trimethoxycinnamoyl)fumagillol alone at 25° C. The residual amount of O-(3,4,5-trimethoxycinnamoyl)fumagillol was determined by HPLC.

[3] = Solubility in sulfobutylether-7-β-cyclodextrin solution (HPLC of filtrate); assay type: physicochemical; settings: 4° C., 72 hr
Description: as §1, with “% sulfobutylether-7-β-cyclodextrin” for “% hydroxypropyl-β-cyclodextrin”, “of O-(4-dimethylaminoethoxycinnamoyl)fumagillol” for “of O-(4-dimethylamino ethoxycinnamoyl)fumagillol”, “the sulfobutylether-7-β-cyclodextrin” for “the hydroxypropyl-β-cyclodextrin”, “Table 2.” for “Table 1.”
as §2, with “% sulfobutylether-7-β-cyclodextrin” for “% hydroxypropyl-β-cyclodextrin”, “the sulfobutyletyher-7-β-cyclodextrin” for “the hydroxypropyl-β-cyclodextrin”, “Table 4.” for “Table 3.”

[4] = Solubility in hydroxypropyl-β-cyclodextrin solution (HPLC of filtrate); assay type: physicochemical
[5] = Solubility evaluation with cosolvents and surfactants; assay type: physicochemical
Excerpt: However, these formulations have a number of disadvantages, which are the inability to guarantee the long-term stability due to facile hydrolysis in solution state, the inability to be buffered due to increased sensitivity to ions resulting in precipitation and further, the toxicity of the surfactants.

[6] = Solubility in phosphate buffer (pH 6.7) containing hydroxypropyl-β-cyclodextrin; assay type: physicochemical; settings: 4° C., 72 hr
Description: O-(4-dimethylaminoethoxycinnamoyl)fumagillol (50 mg) was added to phosphate buffer (pH 6.7) containing 1.5, 3.5, 7.0 and 14.0 w/v % hydroxypropyl-β-cyclodextrin, respectively, and stirred at 4° C. After 72 hr, the mixture was filtered with 0.2 μm membrabe filter and O-(4-dimethylaminoethoxycinnamoyl)fumagillol in the filtrate was determined by high pressure liquid chromatography (HPLC). The solubility of O-(4-dimethylaminoethoxycinnamoyl)fumagillol as a function of the hydroxypropyl-β-cyclodextrin concentration was shown in Table 5.

[7] = Stability (hydrolysis) in acidic, neutral and basic solutions at 50° C. with hydroxypropyl-β-cyclodextrin; assay type: physicochemical
Description: The stability of O-(4-dimethylaminoethoxycinnamoyl)fumagillol was investigated in the presence of various concentrations of hydroxypropyl-β-cyclodextrin in acidic, neutral and basic solutions at 50° C. The residual amount of O-(4-dimethylaminoethoxycinnamoyl)fumagillol in each solution was determined by HPLC.

[8] = system: Lewis lung carcinoma; test: Tumor growth inhibition, subcutaneously implanted Lewis lung carcinoma; assay type: in vivo; settings: BDF1 mice
Description: Pre-prepared tumor mass (Lewis lung carcinoma) of 8 mm^3 was subcutaneously implanted into the right axillary region of BDF1 mice (4 weeks). When the tumor size was 100-200 mm^3, mice were divided randomly into treatment group and control group. The treatment group was administered subcutaneously with O-(4-ethylaminoethoxycinnamoyl)fumagillol or the complex of O-(4-ethylaminoethoxycinnamoyl)fumagillol with hydroxypropyl-β-cyclodextrin at a dose of 30 mg/kg or 120 mg/kg as O-(4-ethylaminoethoxycinnamoyl)fumagillol every other day for 5 injections, while the control group was given injections of 0.2 ml of phosphate buffered saline. The tumors were weighed on the final day, and tumor volume was calculated using the following equation:
Tumor volume (mm^3)=a×b^2×0.5
(a: the longest diameter, b: the shortest diatheter) Inhibition ratio (IR %) of the treatment group relative to the untreated control group was calculated using the following equation:
=(1−Tumor volume of Treatment group/Tumor volume of Control group)×100
=(1−Tumor weight of Treatment group/Tumor weight of Control group)×100

[9] = cited from earlier work
[10] = 1.5 w/v % hydroxypropyl-β-cyclodextrin
[11] = 3.5 w/v % hydroxypropyl-β-cyclodextrin
[12] = 14.0 w/v % hydroxypropyl-β-cyclodextrin
[13] = 28.0 w/v % hydroxypropyl-β-cyclodextrin
[14] = 0 w/v % sulfobutylether-7-β-cyclodextrin
[15] = 1.5 w/v % sulfobutylether-7-β-cyclodextrin
[16] = 3.5 w/v % sulfobutylether-7-β-cyclodextrin
[17] = 14.0 w/v % sulfobutylether-7-β-cyclodextrin
[18] = 28.0 w/v % sulfobutylether-7-β-cyclodextrin
[19] = 0 w/v % hydroxypropyl-β-cyclodextrin, 4° C., 72 hr
[20] = Acidic (pH 3.2), 2 w/v % hydroxypropyl-β-cyclodextrin
[21] = Acidic (pH 3.2), 5 w/v % hydroxypropyl-β-cyclodextrin
[22] = Acidic (pH 3.2), 10 w/v % hydroxypropyl-β-cyclodextrin
[23] = Acidic (pH 3.2), 20 w/v % hydroxypropyl-β-cyclodextrin
[24] = Basic (pH 11.5), 2 w/v % hydroxypropyl-β-cyclodextrin
[25] = Basic (pH 11.5), 5 w/v % hydroxypropyl-β-cyclodextrin
[26] = Basic (pH 11.5), 10 w/v % hydroxypropyl-β-cyclodextrin
[27] = Basic (pH 11.5), 20 w/v % hydroxypropyl-β-cyclodextrin
[28] = Neutral (pH 7.2), 2 w/v % hydroxypropyl-β-cyclodextrin
[29] = Neutral (pH 7.2), 5 w/v % hydroxypropyl-β-cyclodextrin
[30] = Neutral (pH 7.2), 10 w/v % hydroxypropyl-β-cyclodextrin
[31] = Neutral (pH 7.2), 20 w/v % hydroxypropyl-β-cyclodextrin
[32] = Total Dose 150 mg/kg (30 mg/kg subcutaneously every other day, 5 injections)
[33] = Total Dose 600 mg/kg (120 mg/kg subcutaneously every other day, 5 injections)

SMILES: COc1cc(C=CC(=O)OC2CCC3(CO3)C(C3(C)OC3CC=C(C)C)C2OC)cc(OC)c1OC (centres unmarked) [O-(3,4,5-trimethoxycinnamoyl)fumagillol]
- Solubility [1, 10]: 430 µg/mL (≈ 0.856 mM)
- Solubility [1, 11]: 1520 µg/mL (≈ 3.02 mM)
- Solubility ([1]; 7.0 w/v % hydroxypropyl-β-cyclodextrin): 3540 µg/mL (≈ 7.04 mM)
- Solubility [1, 12]: 6720 µg/mL (≈ 13.4 mM)
- Solubility [1, 13]: 12020 µg/mL (≈ 23.9 mM)
- Residual amount of O-(3,4,5-trimethoxycinnamoyl)fumagillol (%) after 1 month ([2]; 25° C., after 1 month): 65.3%
- Solubility [3, 14]: 2 µg/mL (≈ 0.00398 mM)
- Solubility [3, 15]: 580 µg/mL (≈ 1.15 mM)
- Solubility [3, 16]: 1380 µg/mL (≈ 2.75 mM)
- Solubility ([3]; 7.0 w/v % sulfobutylether-7-β-cyclodextrin): 2750 µg/mL (≈ 5.47 mM)
- Solubility [3, 17]: 5690 µg/mL (≈ 11.3 mM)
- Solubility [3, 18]: 11670 µg/mL (≈ 23.2 mM)
- Solubility [4, 19]: 2 µg/mL (≈ 0.00398 mM)

- Solubility ([5]; aqueous formulation containing 10% Cremophor-EL alone): about 5 mg/ml
- Solubility ([5]; aqueous formulation containing a mixture of 10% ethanol and 10% Tween 80): about 5 mg/ml
- Solubility ([6]; phosphate buffer pH 6.7, 0 w/v % hydroxypropyl-β-cyclodextrin): 2380 µg/mL (≈ 4.76 mM)
- Solubility ([6]; phosphate buffer pH 6.7, 1.5 w/v % hydroxypropyl-β-cyclodextrin): 4240 µg/mL (≈ 8.49 mM)
- Solubility ([6]; phosphate buffer pH 6.7, 3.5 w/v % hydroxypropyl-β-cyclodextrin): 9860 µg/mL (≈ 19.7 mM)
- Solubility ([6]; phosphate buffer pH 6.7, 7.0 w/v % hydroxypropyl-β-cyclodextrin): 17590 µg/mL (≈ 35.2 mM)
- Solubility [1, 10]: 1030 µg/mL (≈ 2.06 mM)
- Solubility [1, 11]: 2930 µg/mL (≈ 5.86 mM)
- Solubility [1, 12]: 11540 µg/mL (≈ 23.1 mM)
- Solubility [1, 13]: 22640 µg/mL (≈ 45.3 mM)
- Residual amount of O-(4-dimethylaminoethoxycinnamoyl)fumagillol (%) after 1 month ([2]; storage at 25° C., after 1 month): 72.8%
- Residual amount of O-(4-dimethylaminoethoxycinnamoyl)fumagillol (%) after 3 month ([2]; storage at 25° C., after 3 month): 54.3%
- Solubility [3, 14]: 50 µg/mL (≈ 0.1 mM)
- Solubility [3, 15]: 870 µg/mL (≈ 1.74 mM)
- Solubility [3, 16]: 2240 µg/mL (≈ 4.48 mM)
- Solubility [3, 17]: 10430 µg/mL (≈ 20.9 mM)
- Solubility [3, 18]: 21300 µg/mL (≈ 42.6 mM)
- kobs (Hydrolysis Rate Constant) ([7]; Acidic (pH 3.2), 0 w/v % hydroxypropyl-β-cyclodextrin): 0.2042 h⁻¹
- Inhibition ratio (%) [7, 20]: 52.20%
- kobs (Hydrolysis Rate Constant) [7, 20]: 0.0976 h⁻¹
- Inhibition ratio (%) [7, 21]: 58.47%
- kobs (Hydrolysis Rate Constant) [7, 21]: 0.0848 h⁻¹
- Inhibition ratio (%) [7, 22]: 63.08%
- kobs (Hydrolysis Rate Constant) [7, 22]: 0.0754 h⁻¹
- Inhibition ratio (%) [7, 23]: 67.43%
- kobs (Hydrolysis Rate Constant) [7, 23]: 0.0665 h⁻¹
- kobs (Hydrolysis Rate Constant) ([7]; Basic (pH 11.5), 0 w/v % hydroxypropyl-β-cyclodextrin): 0.0918 h⁻¹
- Inhibition ratio (%) [7, 24]: 5.00%
- kobs (Hydrolysis Rate Constant) [7, 24]: 0.0816 h⁻¹
- Inhibition ratio (%) [7, 25]: 16.55%
- kobs (Hydrolysis Rate Constant) [7, 25]: 0.0580 h⁻¹
- Inhibition ratio (%) [7, 26]: 22.77%
- kobs (Hydrolysis Rate Constant) [7, 26]: 0.0453 h⁻¹
- Inhibition ratio (%) [7, 27]: 30.56%
- kobs (Hydrolysis Rate Constant) [7, 27]: 0.0294 h⁻¹
- kobs (Hydrolysis Rate Constant) ([7]; Neutral (pH 7.2), 0 w/v % hydroxypropyl-β-cyclodextrin): 0.0162 h⁻¹
- Inhibition ratio (%) [7, 28]: 12.96%
- kobs (Hydrolysis Rate Constant) [7, 28]: 0.0141 h⁻¹
- Inhibition ratio (%) [7, 29]: 15.43%
- kobs (Hydrolysis Rate Constant) [7, 29]: 0.0137 h⁻¹
- Inhibition ratio (%) [7, 30]: 24.96%
- kobs (Hydrolysis Rate Constant) [7, 30]: 0.0122 h⁻¹
- Inhibition ratio (%) [7, 31]: 29.01%
- kobs (Hydrolysis Rate Constant) [7, 31]: 0.0115 h⁻¹
- Solubility [4, 19]: 50 µg/mL (≈ 0.1 mM)
- increase of aqueous solubility ([4]; depending the pH and the concentration of hydroxypropyl-β-cyclodextrin or sulfobutylether-7-β-cyclodextrin): 20-1000 fold
- Solubility ([4]; in water): 50 µg/mL (≈ 0.1 mM)
SMILES: CO[C@@H]1[C@H](OC(=O)C=Cc2ccc(OCCN(C)C)cc2)CC[C@]2(CO2)[C@H]1[C@@]1(C)O[C@@H]1CC=C(C)C [O-(4-dimethylaminoethoxycinnamoyl)fumagillol]
- Inhibition Ratio (%), Tumor Tissue Volume [8, 32]: 37.7%
- Inhibition Ratio (%), Tumor Tissue Weight [8, 32]: 33.6%
- Inhibition Ratio (%), Tumor Tissue Volume [8, 33]: 63.3%
- Inhibition Ratio (%), Tumor Tissue Weight [8, 33]: 71.4%

SMILES: OC[C@H]1O[C@@H]2O[C@H]3[C@H](O)[C@@H](O)[C@@H](O[C@H]4[C@H](O)[C@@H](O)[C@@H](O[C@H]5[C@H](O)[C@@H](O)[C@@H](O[C@H]6[C@H](O)[C@@H](O)[C@@H](O[C@H]7[C@H](O)[C@@H](O)[C@@H](O[C@H]8[C@H](O)[C@@H](O)[C@@H](O[C@H]1[C@H](O)[C@H]2O)O[C@@H]8CO)O[C@@H]7CO)O[C@@H]6CO)O[C@@H]5CO)O[C@@H]4CO)O[C@@H]3CO [β-cyclodextrin]
- aqueous solubility [9]: 1.8 g per 100 ml of water

Reference: patent US20130029936A1, “Inclusion Compounds of Fumagillol Derivative or its Salt, and Pharmaceutical Compositions Comprising the Same” (priority 2002, published 2013)
